One series deals with BLM melanoma cells. In words: MTT test, BLM. The series is classed as cell-based. As to the method:
An MTT test provides an indication of cell viability, proliferation and activity through determination of the mitochondrial conversion of 3-(4,5-dimethylthiazol-2-yl)-2,5-diphenyltetrazolium bromide (MTT), a yellow salt, into formazan, a salt that precipitates under the form of blue crystals.
In concreto, 5,000 cells are seeded in a cup of a 96 well-plate, treated with the desired amount of the test substance, and incubated for a chosen period of time. Next, 40 μL of a filtered (0.2 μm) 5 mg·mL^−1 solution of MTT in PBS is added to the cup. After 2 h of incubation at 37° C. in the dark, all liquid is removed. The obtained formazan salts are dissolved in 200 μL of DMSO, whereupon optical density is measured at 490 nm.
As 4-fluoro-3′,4′,5′-trimethoxychalcone had exerted an anti-invasive activity on BLM melanoma cells in the Matrigel invasion assay, we were intrigued to verify how its effect on the viability of BLM cells would compare to that observed for the MCF-7 cell lines.

In a further series the test system is BLM cells. The series is described as follows: Matrigel invasion assay. The series is classed as cell-based. The following applies: for Number of invasive BLM-cells found at the basolateral side of the filter: 24 h, samples 1 and 2. The text has this:
An interesting method to determine the invasive capacity of cells and the anti-invasive potential of different substances is the matrigel invastion assay. Matrigel can be considered to be a basal membrane and is obtained from mice EHS sarcomas (tumors having an abundant expression of extracellular matrix proteins). The primary component of a matrigel is laminin, further also including collagen IV, heparan, sulphate proteoglycans and growth factors. It is also important that matrix degrading enzymes and inhibitors are present.
At room temperature, matrigel polymerizes into a matrix which mimicks a basal membrane of breast cells. The behavior of cells towards a matrigel highly resembles the in vivo situation and therefore this test is acknowledged to be an appropriate approach to the study migration and invasion, and the role of ECM receptors and matrix degrading enzymes in these processes.
In particular for this example, test cells were placed on a matrigel layer in serum-free medium. Subsequently, said cells were allowed to invade into the matrigel layer upon which they move through a filter, and attach to the bottom of said filter. The migration of the cells is stimulated by the presence of conditioned medium, at the other side of the filter, which act as a chemoattractant for the cells.
50 μl matrigel (+/−3 mg/ml serum-free DMEM) was applied in the apical compartment (upper chamber) of 24-well plate inserts having a pore size of 8 μm. After 1 h of polymerization (37° C.) 50.000 BLM cells (in 150 μl serum-free DMEM) were seeded and incubated with varying concentrations of compound 49 (0-100 μM). In the basolateral compartment (lower chamber), 700 μl conditioned medium, containing the same concentration of compound 49 as used in the apical compartment was applied as a chemo-attractant for the cells. The plates were incubated for 24 h at 37° C. and the matrigel and cells at the apical side were removed using wetted cotton swabs (PBSD-). The filters were washed twice on both sides with PBSD- and subsequently incubated for 10 min in ice-cold methanol to fix the cells. To quantify the number of migrated cells, the filters were incubated for 15 min with DAPI and subsequently washed 4×5 min with PBSD-. The filters were then mounted on coverslips and the number of migrated cells was determined for each concentration of compound 49 using a fluorescence microscope.

The test system of a further series is CT5.3 myofibroblasts. In words: SRB test, CT5.3. The series is classed as cell-based, human. Particulars: 10 μmol·L−1, 24 h, decreasing trend, not significant. How it is done: (§1) The SRB assay is used to evaluate growth effects on cells, and measures the total protein content. In this test, 5,000 cells are seeded in a cup of a 96-well plate. Upon a 24 h-attachment period, cells are treated with a certain amount of the test molecule (dissolved in DMSO). After a pre-chosen incubation time, cells are fixed with 50 μL of 50% trichloroacetic acid (2° C., 1 h). Afterward, the plate is rinsed five times with tap water, and air dried overnight.
(§2) Next, proteins are stained with 75 μL of a 0.4% solution of SRB in AcOH (30 min). Unbound SRB is subsequently removed by washing with a 1% solution of glacial AcOH, whereupon the plate is air dried. Then, bound SRB is redissolved in 100 μL of a 10 mmol·L^−1 tris(hydroxymethyl)aminomethane (Tris) buffer (pH=10.5), after which optical density is determined at 490 nm with a spectrophotometer.
(§3) In order to verify whether the antiproliferative effects of compound 49, witnessed in BLM and MCF-7/6 cells at high concentrations, were cell specific, additional SRB and MTT assays on a further five cell lines (HCT8-E11, TR146, FaDu, 3T3-L1 and CT5.3) were conducted (FIG. 8). The results for MCF-7/6 cells were added to facilitate comparison.
(§4) The CT5.3 cell line consists of human myofibroblasts which were isolated from a colon tumor (Van Hoorde et al., 1999). […]

Another series relates to 3T3-L1 cells. The series is described as follows: SRB test, 3T3-L1. The format is cell-based, murine. The following applies: 10 μmol·L−1, 24 h, decreasing trend, not significant. As to the method: as §1, §2, §3, §4
The subject of the next series is TR146 cells. The series is described as follows: SRB test, TR146. Particulars: 1 or 10 μmol·L−1, 24 h. The series is classed as cell-based, human. How it is done:
as §1, §2, §3, §4
In general terms: Sulforhodamine B stains cellular protein and so reports cell mass.

The structures appear in SMILES notation. “And” between values parts separate entries of the source, which are not always exact repeats. Equal entries are not always repeated.

One molecule from patent publication US9290427B2, “Anti-invasive compounds” (Universiteit Gent, priority 2012, dated 2016) can be followed below.

Consider `COc1cc(C(=O)/C=C/c2ccc(F)cc2)cc(OC)c1OC` [Compound 49, (2E)-3-(4-Fluorophenyl)-1-(3,4,5-trimethoxyphenyl)propenone], for which the “reduction of BLM cell viability (mitochondrial activity)” value in the series with BLM melanoma cells (0.1 μmol·L−1, 24 h) stood at 22%; in the series on BLM melanoma cells (1 μmol·L−1, 24 h), 27%; with BLM melanoma cells (100 μmol·L−1, 24 h), 76%. In the series with BLM melanoma cells (10 μmol·L−1, 24 h), the “reduction in mitochondrial activity” value was determined as 40%. Also, the “reduction of the number of invasive cells” value amounted to 80% in the series with BLM cells (0.1 μM), 67% with BLM cells (1 μM), 93% in the series on BLM cells (10 μM) and 98% in the series with BLM cells (100 μM). In addition, the “Number of invasive BLM-cells found at the basolateral side of the filter” value with BLM cells (1 μM) is 282 and 160; in the series on BLM cells (10 μM), 57 and 33. For the same molecule, the “change in total protein content” value in the series with CT5.3 myofibroblasts is given as −15%; in the series on 3T3-L1 cells, −20%. In addition, the “total protein content versus solvent control” value in the series with TR146 cells is “no significant differences”.
